Values after ≈ are worked out from the molar mass of the structure shown.
Assays:
Assay type in all cases: functional
Candida albicans [1] = assay: Ratio of fluconazole MIC80 to compound MIC80 against Candida albicans SC5314
Candida parapsilosis = assay: Antifungal activity against Candida parapsilosis assessed as growth inhibition by microbroth dilution method; conditions: Lodderomyces parapsilosis
Kluyveromyces marxianus [2] = assay: Ratio of fluconazole MIC80 to compound MIC80 against Candida kefyr
Candida albicans [3] = assay: Antifungal activity against Candida albicans SC5314 assessed as growth inhibition after 24 hrs by microbroth dilution method; conditions: SC5314, 24 h
Kluyveromyces marxianus [4] = assay: Antifungal activity against Candida kefyr assessed as growth inhibition by microbroth dilution method
Trichophyton rubrum [5] = assay: Antifungal activity against Trichophyton rubrum assessed as growth inhibition by microbroth dilution method
Candida tropicalis = assay: Antifungal activity against Candida tropicalis assessed as growth inhibition by microbroth dilution method
Cryptococcus neoformans = assay: Antifungal activity against Cryptococcus neoformans assessed as growth inhibition after 72 hrs by microbroth dilution method
Aspergillus fumigatus = assay: Antifungal activity against Aspergillus fumigatus assessed as growth inhibition by microbroth dilution method
Candida albicans [6] = assay: Antifungal activity against Candida albicans Y0109 assessed as growth inhibition after 24 hrs by microbroth dilution method; conditions: Y0109, 24 h
Trichophyton rubrum [7] = assay: Ratio of fluconazole MIC80 to compound MIC80 against Trichophyton rubrum

Row | Structure (SMILES) | Ratio (Candida albicans [1]) | MIC80 (Candida parapsilosis) [µg/mL] | Ratio (Kluyveromyces marxianus [2]) | MIC80 (Candida albicans [3]) [µg/mL] | MIC80 (Kluyveromyces marxianus [4]) [µg/mL] | MIC80 (Trichophyton rubrum [5]) [µg/mL] | MIC80 (Candida tropicalis) [µg/mL] | MIC80 (Cryptococcus neoformans) [µg/mL] | MIC80 (Aspergillus fumigatus) [µg/mL] | MIC80 (Candida albicans [6]) [µg/mL] | Ratio (Trichophyton rubrum [7])
1 | CN(Cc1cn(Cc2cccc([N+](=O)[O-])c2)nn1)CC(O)(Cn1cncn1)c1ccc(F)cc1F (stereo not drawn) | 32 | 0.0625 | 64 | 0.0156 (≈ 0.0322 µM) | 0.0156 | 0.0625 | 0.0625 | 0.25 (≈ 0.516 µM) | > 64 | < 0.125 | –
2 | CN(Cc1cn(Cc2ccc([N+](=O)[O-])cc2)nn1)CC(O)(Cn1cncn1)c1ccc(F)cc1F (stereo not drawn) | – | 0.25 | – | 0.25 (≈ 0.516 µM) | 0.25 | 1 | 0.25 | 0.25 (≈ 0.516 µM) | > 64 | 0.25 (≈ 0.516 µM) | –
3 | CN(Cc1cn(Cc2ccccc2C#N)nn1)CC(O)(Cn1cncn1)c1ccc(F)cc1F (stereo not drawn) | – | 0.0625 | – | 0.25 (≈ 0.538 µM) | 0.25 | 1 | 0.25 | 0.25 (≈ 0.538 µM) | > 64 | < 0.125 | –
4 | CN(Cc1cn(Cc2cccc(C#N)c2)nn1)CC(O)(Cn1cncn1)c1ccc(F)cc1F (stereo not drawn) | – | 0.25 | – | 1 (≈ 2.15 µM) | 1 | 1 | 1 | 4 (≈ 8.61 µM) | > 64 | 0.5 (≈ 1.08 µM) | –
5 | CN(Cc1cn(Cc2ccc(C#N)cc2)nn1)CC(O)(Cn1cncn1)c1ccc(F)cc1F (stereo not drawn) | 8 | 0.0156 | 16 | 0.0625 (≈ 0.135 µM) | 0.0625 | 0.0625 | 0.0625 | 0.25 (≈ 0.538 µM) | > 64 | < 0.0125 | 32
6 | CN(Cc1cn(Cc2cccc(F)c2)nn1)CC(O)(Cn1cncn1)c1ccc(F)cc1F (stereo not drawn) | – | 0.5 | – | 0.25 (≈ 0.546 µM) | 64 | 16 | 0.5 | 2 (≈ 4.37 µM) | > 64 | 0.25 (≈ 0.546 µM) | –
7 | CN(Cc1cn(Cc2ccc(F)cc2)nn1)CC(O)(Cn1cncn1)c1ccc(F)cc1F (stereo not drawn) | – | 0.25 | – | 1 (≈ 2.19 µM) | 16 | 4 | 0.25 | 1 (≈ 2.19 µM) | > 64 | 0.5 (≈ 1.09 µM) | –
8 | CN(Cc1cn(Cc2ccccc2Cl)nn1)CC(O)(Cn1cncn1)c1ccc(F)cc1F (stereo not drawn) | – | 0.25 | – | 0.25 (≈ 0.528 µM) | 16 | 4 | 1 | 0.25 (≈ 0.528 µM) | > 64 | 0.25 (≈ 0.528 µM) | –
9 | CN(Cc1cn(Cc2ccc(Cl)cc2)nn1)CC(O)(Cn1cncn1)c1ccc(F)cc1F (stereo not drawn) | – | 0.25 | – | 0.25 (≈ 0.528 µM) | 0.25 | 4 | 1 | 1 (≈ 2.11 µM) | > 64 | < 0.125 | –
10 | CN(Cc1cn(Cc2ccccc2Br)nn1)CC(O)(Cn1cncn1)c1ccc(F)cc1F (stereo not drawn) | – | 0.25 | – | 0.25 (≈ 0.482 µM) | 0.0625 | 0.25 | 0.25 | 0.25 (≈ 0.482 µM) | > 64 | 0.25 (≈ 0.482 µM) | –
11 | CN(Cc1cn(Cc2cccc(Br)c2)nn1)CC(O)(Cn1cncn1)c1ccc(F)cc1F (stereo not drawn) | – | 0.0625 | – | 0.25 (≈ 0.482 µM) | 0.25 | 1 | 0.25 | 0.25 (≈ 0.482 µM) | > 64 | < 0.125 | –
12 | CN(Cc1cn(Cc2ccc(Br)cc2)nn1)CC(O)(Cn1cncn1)c1ccc(F)cc1F (stereo not drawn) | – | 0.25 | – | 0.25 (≈ 0.482 µM) | 1 | 4 | 0.25 | 1 (≈ 1.93 µM) | > 64 | < 0.125 | –
13 | Cc1ccccc1Cn1cc(CN(C)CC(O)(Cn2cncn2)c2ccc(F)cc2F)nn1 (stereo not drawn) | – | 0.0625 | – | 0.25 (≈ 0.551 µM) | 0.25 | 4 | 0.25 | 0.25 (≈ 0.551 µM) | > 64 | 0.25 (≈ 0.551 µM) | –
14 | Cc1ccc(Cn2cc(CN(C)CC(O)(Cn3cncn3)c3ccc(F)cc3F)nn2)cc1 (stereo not drawn) | – | 0.0625 | – | 0.25 (≈ 0.551 µM) | 0.25 | 1 | 1 | 1 (≈ 2.21 µM) | > 64 | < 0.125 | –
15 | CN(Cc1cn(Cc2ccccc2[N+](=O)[O-])nn1)CC(O)(Cn1cncn1)c1ccc(F)cc1F (stereo not drawn) | – | 0.25 | – | 0.25 (≈ 0.516 µM) | 0.25 | 4 | 1 | 1 (≈ 2.06 µM) | > 64 | < 0.125 | –
16 | C[C@@H]1[C@H](O)[C@@H](C)/C=C/C=C/C=C/C=C/C=C/C=C/C=C/[C@H](O[C@@H]2O[C@H](C)[C@@H](O)[C@H](N)[C@@H]2O)C[C@@H]2O[C@](O)(C[C@@H](O)C[C@@H](O)[C@H](O)CC[C@@H](O)C[C@@H](O)CC(=O)O[C@H]1C)C[C@H](O)[C@H]2C(=O)O [AMPHOTERICIN B] | – | 1 | – | 8 (≈ 8.66 µM) | 0.25 | 0.125 | 0.25 | 4 (≈ 4.33 µM) | 32 | 4 (≈ 4.33 µM) | –
17 | OC(Cn1cncn1)(Cn1cncn1)c1ccc(F)cc1F [FLUCONAZOLE] | – | < 0.125 | – | 0.5 (≈ 1.63 µM) | 1 | 2 | < 0.125 | 8 (≈ 26.1 µM) | > 64 | 0.5 (≈ 1.63 µM) | –
18 | CCC(C)n1ncn(-c2ccc(N3CCN(c4ccc(OCC5COC(Cn6cncn6)(c6ccc(Cl)cc6Cl)O5)cc4)CC3)cc2)c1=O (stereo not drawn) [ITRACONAZOLE] | – | 0.0625 | – | < 0.0625 | 0.0625 | 0.0625 | < 0.0625 | 0.125 (≈ 0.177 µM) | 2 | 0.0625 (≈ 0.0886 µM) | –
19 | CC(=O)N1CCN(c2ccc(OCC3COC(Cn4ccnc4)(c4ccc(Cl)cc4Cl)O3)cc2)CC1 (stereo not drawn) [KETOCONAZOLE] | – | < 0.125 | – | < 0.125 | 0.0625 | < 0.125 | < 0.125 | 0.5 (≈ 0.941 µM) | 0.125 | < 0.125 | –
20 | CN(C/C=C/C#CC(C)(C)C)Cc1cccc2ccccc12 [TERBINAFINE] | – | < 0.125 | – | 16 (≈ 54.9 µM) | 0.0625 | < 0.125 | < 0.125 | 8 (≈ 27.5 µM) | 0.25 | 2 (≈ 6.86 µM) | –
21 | C[C@@H](c1ncncc1F)[C@](O)(Cn1cncn1)c1ccc(F)cc1F [VORICONAZOLE] | – | 0.25 | – | 32 (≈ 91.6 µM) | 0.0039 | < 0.125 | < 0.125 | < 0.125 | < 0.125 | < 0.125 | –

Reference: ChEMBL document CHEMBL3217508, “Synthesis and antifungal activity of the novel triazole compounds” (2013)
